Reference: patent US20180051284A1, “INHIBITORS OF MIR-17-92 CLUSTER FOR ANTI-TUMOR ACTIVITY IN MULTIPLE MYELOMA AND OTHER MALIGNANCIES” (priority 2014, published 2018)
l = locked nucleic acid (LNA); d = 2'-deoxy (DNA)

Experiments:
[1] = system: PTEN, AKT, ERK, E2F-1, p14/ARF-p53 and intrinsic apoptotic pathway proteins in NCI-H929 cells; assay: Western blot analysis of molecular perturbations after gymnotic exposure; assay type: cell-based, Human
Procedure: SDS-PAGE and Western Blotting (WB) were performed according to standard protocols. Briefly, cells were lysed by lysis buffer containing 15mM Tris/HCl pH 7.5, 120mM NaCl, 25mM KCI, 1mM EDTA, 0.5% Triton 100, Halt Protease Inhibitor Single-Use cocktail (100X, Thermo Scientific). Whole cells lysates (50 μg per lane) were separated using 4-12% Novex Bis-Tris SDS-acrylamide gels (Invitrogen), electro-transferred on Nitrocellulose membranes (Bio-Rad), and immunoblotted with the antibodies. Membranes were washed 3 times in PBS-Tween and then incubated with a secondary antibody conjugated with horseradish peroxidase in 0.5% milk for 2 hours at room temperature. Chemiluminescence was detected using Western Blotting Luminol Reagent (sc-2048, Santa Cruz, Dallas, Tex., USA). Signal intensity was quantified with the Quantity One Analyzing System (Bio-Rad).
MiRNAs are a class of non coding RNAs that regulate gene expression at post-transcriptional levels. Each miRNA may regulate the expression of several (hundreds) genes. Since LNA/DNA gapmers inhibit the biogenisis of the six members of the miR-17-92 cluster, a wide perturbation in the expression of target genes is predictable. Therefore, we gymnotically exposed NCI-H929 cells for 6 days to gapmer_06 or scrambled controls and, by western blotting, we analyzed molecular perturbations at protein levels.

[2] = system: AMO1 xenografts; assay: In vivo tumor growth of AMO1 xenografts (IVIS); design: species or system mice; conditions: I.P. 2 mg/kg at day 1-4-8-15-22
Description: Male CB-17 severe combined immunodeficient (SCID) mice (6- to 8-weeks old; Harlan Laboratories, Inc., Indianapolis) were housed and monitored in our Animal Research Facility. All experimental procedures and protocols had been approved by the Institutional Ethical Committee (Magna Graecia University) and conducted according to protocols approved by the National Directorate of Veterinary Services (Italy). In accordance with institutional guidelines, mice were sacrificed when tumors reached 2 cm in diameter or in the event of paralysis or major compromise, to prevent unnecessary suffering. Animal experimental procedures have been performed as in previous reports (Di Martino et al, CCR 2012; Di Martino el al. Oncotarget 2013, Di Martino et al PlosOne 2014). […] Mice were also inoculated with 5×10^6 luciferase gene-marked U266, AMO-1, AMO-1/abzb, treatments were performed intraperitoneally (i.p.), and tumor volume were measured by IVIS Lumina II.
In vivo anti-MM activity of LNA gapmer_06 was next evaluated in NOD/SCID mice bearing subcutaneous AMO1 xenografts. […] Tumors volume were measured using IVIS LUMINA II Imaging We next evaluate the in vivo activity in Bortezomib-refractory model of human MM. […] Tumors volume were measured using IVIS LUMINA II Imaging System.

[3] = NCI-H929, 6 days gymnotic exposure, 2,5 μM

gapmer_06: LNA/DNA gapmer, SEQ ID 4 (14 mer): +T*+A*+C*T*T*G*C*T*T*G*G*+C*+T*+T; + LNA, * phosphorothioate (antisense TACTTGCTTGGCTT; sugars from the 5' end l3 d8 l3, all phosphorothioate, methylation of C not given here)
E2F-1 protein level (Western Blot) [1, 3]: strongly up-regulated | anti-apoptotic proteins Bcl-2, Mcl-1 (Western Blot) [1, 3]: down-regulation of anti-apoptotic proteins | caspase-3 cleavage (Western Blot) [1, 3]: caspase-3 cleavege | p-AKT and p-ERK (phosphorylated/active forms, Western Blot) [1, 3]: reduction of the phopshorylated / active forms | pro-apoptotic proteins Puma, Bak, Bax, Bid and Bim (Western Blot) [1, 3]: up-regulation of pro-apototic proteins | PTEN protein level (Western Blot) ([1]; NCI-H929, 6 days gymnotic exposure, 2,5 μM, vs scrambled controls): strong up-regulation | p14/ARF-p53 fail-safe axis (Western Blot) ([1]; p53-wild-type NCI-H929, 6 days gymnotic exposure, 2,5 μM): triggers the p14/ARF-p53 fail-safe axis | tumor-growth inhibition relative to Bortezomib 1 mg/kg [2]: almost comparable to Bortezomib effect | tumor growth (IVIS tumor volume) ([2]; vs NaCl control): significant tumor-growth inhibition
